Key:
Assay type in all cases: cell-based
[1] = biological target: T1, human GHR (Homo sapiens, UniProt P10912); experiment: c-fos reporter luciferase assay, GH-stimulated cells; settings: for GH induced increase in c-fos reporter activity: FIG. 5A; for c-fos reporter activity, % of untreated controls: cells serum starved, incubated with test compound (10 μM), treated with GH, normalized to renilla luciferase
T1 construct: expressed in transfected cells; HEK293 according to the assay procedure
T1 sequence (P10912 19-638): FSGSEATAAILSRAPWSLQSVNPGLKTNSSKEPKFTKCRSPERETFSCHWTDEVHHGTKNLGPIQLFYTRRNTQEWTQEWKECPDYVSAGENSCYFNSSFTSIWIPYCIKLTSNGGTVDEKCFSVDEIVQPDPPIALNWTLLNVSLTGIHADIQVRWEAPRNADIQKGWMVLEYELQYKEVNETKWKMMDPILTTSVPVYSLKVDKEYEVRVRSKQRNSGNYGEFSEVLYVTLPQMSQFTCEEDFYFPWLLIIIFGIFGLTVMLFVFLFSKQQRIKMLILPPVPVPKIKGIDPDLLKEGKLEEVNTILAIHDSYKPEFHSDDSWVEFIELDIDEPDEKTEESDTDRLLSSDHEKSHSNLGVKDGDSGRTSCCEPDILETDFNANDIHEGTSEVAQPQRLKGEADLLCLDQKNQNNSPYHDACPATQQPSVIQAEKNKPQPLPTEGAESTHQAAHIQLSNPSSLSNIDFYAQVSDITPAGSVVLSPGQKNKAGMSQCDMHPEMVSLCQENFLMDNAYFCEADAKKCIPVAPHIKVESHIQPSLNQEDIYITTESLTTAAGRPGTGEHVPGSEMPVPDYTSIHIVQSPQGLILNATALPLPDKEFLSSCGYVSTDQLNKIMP
Protocol: (§1) FIG. 5A. Lead compounds (#34, 37, 38) identified by luciferase reporter assays. Mouse L cells expressing human GHR were transfected with c-fos or SOCS2 reporter luciferase plasmids. Cells were serum starved, incubated with test compounds (#34, 37, 38) and then treated with GH. Data are normalized to co-transfected CMV-driven renilla luciferase and expressed as relative light units (RLU). (A) c-fos reporter luciferase activity.
(§2) In order to perform high throughput screening (HTS) for inhibitors of GHR, HEK293 cell lines permanently transfected were established with a luciferase reporter driven by either c-fos or SOCS2 promoter (FIG. 7).
(§3) The SOCS (Suppressor of Cytokine Signaling) proteins are induced by GH and act as negative regulators of cytokine signaling pathways. […] Luciferase reporter constructs where the luciferase gene is under the control of promoters of either SOCS2 or c-fos have been stably transfected into human embryonic kidney, HEK293 cells. Cells were serum starved (0.5% FBS) for 24 hours to prevent interference by other growth factors and then treated with 5 or 10 nM hGH (established in dose response studies) and 10 μM of each test compound for 24 hours. This is followed by lysis and analysis of luciferase activity using the luciferase reporter assay (Promega). Each compound is tested in triplicate in a 96 well plate format.

[2] = biological target: T1, human GHR; experiment: SOCS2 reporter luciferase assay, GH-stimulated cells; settings: for GH induced increase in SOCS2 reporter activity: FIG. 5B; for SOCS2 reporter activity, % of untreated controls: cells serum starved, incubated with test compound (10 μM), treated with GH, normalized to renilla luciferase
Protocol: as §1, with “5B.” for “5A.”, “starved, then” for “starved,”, “before GH treatment.” for “and then treated with GH.”, “were” for “are”, “(B) SOCS2” for “(A) c-fos”
FIG. 7. High throughput screening (HTS) platform for the identification of GHR inhibitors. Mouse L cells expressing human GHR were transfected with SOCS2 reporter luciferase plasmids. Cells were serum starved, pre-treated with test compounds (numbered as shown) and then GH. Data are normalized to CMV renilla luciferase and expressed as relative light units (RLU).
as §2, §3

[3] = test system: human GHR; experiment: STAT5 phosphorylation assay (western blot), small molecules; settings: mouse L cells expressing human GHR; compound 30 min prior to 5 nM hGH; FIG. 6
Protocol: FIG. 6. […] (A) Mouse L cells were incubated in 0.5% serum for 24 hours. Cells were treated with compounds 34, 37 or 38 for 30 min prior to 5 nM hGH treatment. The growth hormone antagonist (GHA) was used as a positive control.
The JAK/STAT signaling pathway is the principal signaling mechanism for a variety of growth factors and cytokines. In the growth hormone signaling pathway, dimerization of the GHR in response to GH binding leads to the activation of JAK by transphosphorylation. Activated JAK phosphorylates STAT5, which can then enter the nucleus and activate transcription of target genes. Inhibition of STAT5 phosphorylation will be used to analyze GHR antagonistic properties of the test compounds.
Mouse L fibroblasts engineered to express […] were obtained from Dr. John Kopchick. Serum starved L cells (0.5% FBS for 24 hours) were pre-treated for 30 minutes with 10 μM of each compound identified as a hit from the luciferase assays. Following this, cells were treated with 5 or 10 nM hGH for 10 minutes. Cells were collected and processed for western blotting with phospho-STAT5 and total STAT5 antibodies (Cell Signaling). The GHR antagonist, G120K is used as a positive control. Band intensity was analyzed using ImageJ and STAT5 phosphorylation normalized to total STAT5 levels. Compounds that inhibited STAT5 phosphorylation were selected for further drug optimization.

GH induced increase in c-fos reporter activity [1]	c-fos reporter activity, % of untreated controls [1] [%]	GH induced increase in SOCS2 reporter activity [2]	SOCS2 reporter activity, % of untreated controls [2] [%]	SMILES	GH induced phosphorylation of STAT5 [3]
inhibited	57	inhibited	76	O=C(Nc1cccc(S(=O)(=O)N2CCCCCC2)c1)c1ccco1 [Compound 34]	able to inhibit phosphorylation of STAT5
inhibited	27	inhibited	61	CNS(=O)(=O)c1cc(NC(=O)c2ccc(CSc3ccccc3)o2)ccc1C [Compound 37]	able to inhibit phosphorylation of STAT5
